Drawing on patent US10597392B2, “Tetrahydropyridopyrazines as modulators of GPR6” (Takeda Pharmaceutical Corporation Limited, priority 2014, dated 2020), this text covers EC50 for 31 compounds.

What is called EC50 is the concentration that produces a half-maximal response. Lower therefore signals a more potent agent.

For the test, the target named is T1, GPR6 receptor expressed in CHO-K1 cells (Homo sapiens, UniProt P46095).
T1 construct: expressed in transfected cells
T1 sequence (P46095 whole entry): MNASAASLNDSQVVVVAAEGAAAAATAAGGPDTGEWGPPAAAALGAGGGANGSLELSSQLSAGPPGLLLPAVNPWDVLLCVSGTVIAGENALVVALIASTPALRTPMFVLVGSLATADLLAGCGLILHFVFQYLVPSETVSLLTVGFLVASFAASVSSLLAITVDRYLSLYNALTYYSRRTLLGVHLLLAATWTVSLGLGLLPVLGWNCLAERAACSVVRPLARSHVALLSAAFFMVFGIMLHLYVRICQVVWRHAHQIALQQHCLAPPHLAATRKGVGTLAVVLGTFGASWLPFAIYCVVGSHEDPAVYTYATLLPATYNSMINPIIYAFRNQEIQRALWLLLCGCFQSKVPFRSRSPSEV
The test is described as follows: Inhibition of cAMP Activity of GPR6 In Vitro Assay. The class given is cell-based. Particulars: inhibition of constitutive cAMP activity of GPR6 in CHO-K1 cells, 45 min incubation, HTRF cAMP detection. As for the experimental part: Inhibition of cAMP Activity of GPR6 In Vitro Assay
This cell based assay measures the ability of compounds to inhibit the constitutive cAMP activity of GPR6 receptor expressed in CHO-K1 cells. CHO cells were stably expressed with GPR6 receptor, whose expression is controlled by a tetracycline inducable element. The cells were cultured in medium containing F12K, 10% FBS, 1% Penn/Strep, 200 ug/mL Hygromycin. GPR6 receptor expression was induced for 20 hrs with 2 µg/ml doxycycline (sigma D9891) in growth media. After addition of doxycycline cells were plated at a density of 450-750 cells per well in 96-well half-volume black tissue culture plates (Costar) and placed in an incubator (37°, 5% CO2) for 20 hours prior to cAMP assays.
Culture media was removed from cells and they were washed with 50 µL/well of Ringer's Buffer (MgCl2 0.047 mg/mL, NaH2PO4 0.18 mg/mL, Na2HPO4 0.1 mg/mL, KCl 0.34 mg/mL, NaHCO3 1.26 mg/mL, D-glucose 1.8 mg/mL, NaCl 7 mg/mL; pH=7.4). Compounds suspended in DMSO were diluted in Ringer's Buffer containing 0.5% fatty acid free BSA plus 300 μM IBMX and incubated on cells for 45 min at 37° and 5% CO2. After incubation cells were incubated for 10 min at room temp with Eu-cAMP tracer solution from a Perkin Elmer Lance HTRF Ultra cAMP assay kit (TRF0263). Then ULight™-anti-cAMP solution from the Lance HTRF kit was added and incubated on a shaker at room temp for 1 hour prior to HTRF detection in a Perkin Elmer Envision plate reader.
IC50 curves were generated with a four-parameter logistic equation using GraphPad Prism 5.03.
On the technique in general: Time-resolved FRET reads energy transfer from a long-lived donor to a nearby acceptor.
The compound `Cc1cc2nc(NC(C)C)c(N3CCN(Cc4ccc(F)cc4F)CC3)nc2cn1` [Example 1, 3-(4-(2,4-difluorobenzyl)piperazin-1-yl)-N-isopropyl-7-methylpyrido[3,4-b]pyrazin-2-amine] gave an EC50 of 59.4 nM.

`Cc1cc2nc(NC(C)C)c(N3CCC(Oc4ccc(F)cc4F)CC3)nc2cn1` [Example 2, 3-(4-(2,4-difluorophenoxy)piperidin-1-yl)-N-isopropyl-7-methylpyrido[3,4-b]pyrazin-2-amine] returned a half-maximal effective concentration (EC50) of 16.5 nM.

`Cc1cc2nc(N[C@H]3CCOC3)c(N3CCN(Cc4ccc(F)cc4F)CC3)nc2cn1` [Example 3]: the midpoint of the response, the EC50, lay at 88.2 nM.

Consider `Cc1cc2nc(N[C@H]3CCOC3)c(N3CCC(Oc4ccc(F)cc4F)CC3)nc2cn1` [Example 4, (S)-3-(4-(2,4-difluorophenoxy)piperidin-1-yl)-7-methyl-N-(tetrahydrofuran-3-yl)pyrido[3,4-b]pyrazin-2-amine], for which a half-maximal effect (EC50) was put at 49.6 nM.

Compound `Cc1cc2nc(N[C@@H]3CCOC3)c(N3CCC(Oc4ccc(F)cc4F)CC3)nc2cn1` [Example 5, (R)-3-(4-(2,4-difluorophenoxy)piperidin-1-yl)-7-methyl-N-(tetrahydrofuran-3-yl)pyrido[3,4-b]pyrazin-2-amine] displayed an EC50 of 30.1 nM.

`COc1ccc(OC2CCN(c3nc4cnc(C)cc4nc3NC3CC3)CC2)c(F)c1` [Example 8, N-cyclopropyl-3-(4-(2-fluoro-4-methoxyphenoxy)piperidin-1-yl)-7-methylpyrido[3,4-b]pyrazin-2-amine 2,2,2-trifluoroacetate] showed an EC50 of 18.5 nM.

`Cc1cc2nc(N[C@H]3C[C@@H](O)C3)c(N3CCC(Oc4ccc(F)cc4F)CC3)nc2cn1` [Example 9, cis-3-((3-(4-(2,4-difluorophenoxy)piperidin-1-yl)-7-methylpyrido[3,4-b]pyrazin-2-yl)amino)cyclobutanol] yielded a 50% effective concentration (EC50) of 52.3 nM.

As for `Cc1cc2nc(N[C@H]3C[C@@H](O)C3)c(N3CCN(Cc4ccc(F)cc4F)CC3)nc2cn1` [Example 10, cis-3-((3-(4-(2,4-difluorobenzyl)piperazin-1-yl)-7-methylpyrido[3,4-b]pyrazin-2-yl)amino)cyclobutanol], the EC50 worked out at 69.3 nM.

Consider `Cc1cc2nc(N[C@H]3C[C@H](F)C3)c(N3CCC(Oc4ccc(F)cc4F)CC3)nc2cn1` [Example 11, trans-3-(4-(2,4-difluorophenoxy)piperidin-1-yl)-N-(3-fluorocyclobutyl)-7-methylpyrido[3,4-b]pyrazin-2-amino], for which the half-maximal effective concentration (EC50) was determined as 61.4 nM.

In turn, `Cc1cc2nc(N[C@H]3C[C@H](F)C3)c(N3CCN(Cc4ccc(F)cc4F)CC3)nc2cn1` [Example 12, trans-3-(4-(2,4-difluorobenzyl)piperazin-1-yl)-N-(3-fluorocyclobutyl)-7-methylpyrido[3,4-b]pyrazin-2-amine] came in with an EC50 of 49.4 nM.

On to `Cc1cc2nc(N[C@H]3C[C@H](O)C3)c(N3CCC(Oc4ccc(F)cc4F)CC3)nc2cn1` [Example 13, trans-3-((3-(4-(2,4-difluorophenoxy)piperidin-1-yl)-7-methylpyrido[3,4-b]pyrazin-2-yl)amino)cyclobutanol], for which the EC50 amounted to 48.2 nM.

Regarding `Cc1cc2nc(N[C@H]3C[C@H](O)C3)c(N3CCN(Cc4ccc(F)cc4F)CC3)nc2cn1` [Example 14, trans-3-((3-(4-(2,4-difluorobenzyl)piperazin-1-yl)-7-methylpyrido[3,4-b]pyrazin-2-yl)amino)cyclobutanol], a half-maximal response (EC50) required 75.2 nM.

Consider `Cc1cc2nc(NC3COC3)c(N3CCN(Cc4ccc(F)cc4F)CC3)nc2cn1` [Example 15, 3-(4-(2,4-difluorobenzyl)piperazin-1-yl)-7-methyl-N-(oxetan-3-yl)pyrido[3,4-b]pyrazin-2-amine], for which the EC50 amounted to 21.9 nM.

For `Cc1cc2nc(NC(C)C)c(N3CCC(Oc4ccc(OC(F)F)cc4F)CC3)nc2cn1` [Example 18, 3-(4-(4-(difluoromethoxy)-2-fluorophenoxy)piperidin-1-yl)-N-isopropyl-7-methylpyrido[3,4-b]pyrazin-2-amine], the response was half-maximal at 39.9 nM (EC50).

The compound `Cc1cc2nc(NC3CC3)c(N3CCC(Oc4ccc(OC(F)F)cc4F)CC3)nc2cn1` [Example 19, N-cyclopropyl-3-(4-(4-(difluoromethoxy)-2-fluorophenoxy)piperidin-1-yl)-7-methylpyrido[3,4-b]pyrazin-2-amine] showed a concentration giving a half-maximal response (EC50) of 62.6 nM.

`Cc1cc2nc(N[C@@H]3CCOC3)c(N3CCC(Oc4ccc(OC(F)F)cc4F)CC3)nc2cn1` [Example 20, (R)-3-(4-(4-(difluoromethoxy)-2-fluorophenoxy)piperidin-1-yl)-7-methyl-N-(tetrahydrofuran-3-yl)pyrido[3,4-b]pyrazin-2-amine] yielded a 50% effective concentration (EC50) of 81.4 nM.

`Cc1cc2nc(N[C@H]3CCOC3)c(N3CCC(Oc4ccc(OC(F)F)cc4F)CC3)nc2cn1` [Example 21, (S)-3-(4-(4-(difluoromethoxy)-2-fluorophenoxy)piperidin-1-yl)-7-methyl-N-(tetrahydrofuran-3-yl)pyrido[3,4-b]pyrazin-2-amine] registered an EC50 of 162 nM.

In turn, `COc1ccc(CN2CCN(c3nc4cnc(C)cc4nc3NC(C)C)CC2)c(F)c1` [Example 22, 3-(4-(2-fluoro-4-methoxybenzyl)piperazin-1-yl)-N-isopropyl-7-methylpyrido[3,4-b]pyrazin-2-amine] had an EC50 of 37.3 nM.

`COc1ccc(CN2CCN(c3nc4cnc(C)cc4nc3NC3CC3)CC2)c(F)c1` [Example 23, N-cyclopropyl-3-(4-(2-fluoro-4-methoxybenzyl)piperazin-1-yl)-7-methylpyrido[3,4-b]pyrazin-2-amine] showed a concentration for a half-maximal effect (EC50) of 158 nM.

Consider `COc1ccc(CN2CCN(c3nc4cnc(C)cc4nc3N[C@@H]3CCOC3)CC2)c(F)c1` [Example 24, (R)-3-(4-(2-fluoro-4-methoxybenzyl)piperazin-1-yl)-7-methyl-N-(tetrahydrofuran-3-yl)pyrido[3,4-b]pyrazin-2-amine], for which the EC50 came out at 311 nM.

The compound `COc1ccc(CN2CCN(c3nc4cnc(C)cc4nc3N[C@H]3CCOC3)CC2)c(F)c1` [Example 25, (S)-3-(4-(2-fluoro-4-methoxybenzyl)piperazin-1-yl)-7-methyl-N-(tetrahydrofuran-3-yl)pyrido[3,4-b]pyrazin-2-amine] displayed a 50% effective concentration (EC50) of 278 nM.

`Cc1cc2nc(NC(C)C)c(N3CCN(Cc4ccc(OC(F)F)cc4F)CC3)nc2cn1` [Example 26, 3-(4-(4-(difluoromethoxy)-2-fluorobenzyl)piperazin-1-yl)-N-isopropyl-7-methylpyrido[3,4-b]pyrazin-2-amine]: a half-maximal effect (EC50) was put at 466 nM.

In the case of `Cc1cc2nc(NC3CC3)c(N3CCN(Cc4ccc(OC(F)F)cc4F)CC3)nc2cn1` [Example 27, N-cyclopropyl-3-(4-(4-(difluoromethoxy)-2-fluorobenzyl)piperazin-1-yl)-7-methylpyrido[3,4-b]pyrazin-2-amine], the 50% effective concentration (EC50) is 446 nM.

`Cc1cc2nc(N[C@@H]3CCOC3)c(N3CCN(Cc4ccc(OC(F)F)cc4F)CC3)nc2cn1` [Example 28, (R)-3-(4-(4-(difluoromethoxy)-2-fluorobenzyl)piperazin-1-yl)-7-methyl-N-(tetrahydrofuran-3-yl)pyrido[3,4-b]pyrazin-2-amine]: the 50% effective concentration (EC50) is more than 1000 nM.

As for `Cc1cc2nc(N[C@H]3CCOC3)c(N3CCN(Cc4ccc(OC(F)F)cc4F)CC3)nc2cn1` [Example 29, (S)-3-(4-(4-(difluoromethoxy)-2-fluorobenzyl)piperazin-1-yl)-7-methyl-N-(tetrahydrofuran-3-yl)pyrido[3,4-b]pyrazin-2-amine], the half-maximal effective concentration (EC50) was more than 1000 nM.

In turn, `Cc1cc2nc(N3CCN(Cc4ccc(F)cc4F)CC3)c(NC(C)C)nc2cn1` [Example 30, 2-(4-(2,4-difluorobenzyl)piperazin-1-yl)-N-isopropyl-7-methylpyrido[3,4-b]pyrazin-3-amine 2,2,2-trifluoroacetate] yielded a concentration for a half-maximal effect (EC50) of 80.1 nM.

Compound `Cc1cc2nc(N3CCN(Cc4ccc(F)cc4F)CC3)c(NC3CC3)nc2cn1` [Example 31, N-cyclopropyl-2-(4-(2,4-difluorobenzyl)piperazin-1-yl)-7-methylpyrido[3,4-b]pyrazin-3-amine 2,2,2-trifluoroacetate] registered an EC50 of 188 nM.

`Cc1cc2nc(N3CCN(Cc4ccc(F)cc4F)CC3)c(N[C@H]3CCOC3)nc2cn1` [Example 32, (S)-2-(4-(2,4-difluorobenzyl)piperazin-1-yl)-7-methyl-N-(tetrahydrofuran-3-yl)pyrido[3,4-b]pyrazin-3-amine]: a half-maximal response (EC50) required 326 nM.

`Cc1cc2nc(N3CCN(Cc4ccc(F)cc4F)CC3)c(N[C@@H]3CCOC3)nc2cn1` [Example 33]: the response was half-maximal at 102 nM (EC50).

`Cc1cc2nc(N3CCC(Oc4ccc(F)cc4F)CC3)c(NC3CC3)nc2cn1` [Example 34, N-cyclopropyl-2-(4-(2,4-difluorophenoxy)piperidin-1-yl)-7-methylpyrido[3,4-b]pyrazin-3-amine] came in with a half-maximal effective concentration (EC50) of 94.9 nM.

For `Cc1cc2nc(N3CCC(Oc4ccc(F)cc4F)CC3)c(NC(C)C)nc2cn1` [Example 35, 2-(4-(2,4-difluorophenoxy)piperidin-1-yl)-N-isopropyl-7-methylpyrido[3,4-b]pyrazin-3-amine], the response was half-maximal at 66.4 nM (EC50).
